Experimental data taken from US20230219886A1, “NOVEL SELENO-NSAID ANALOGS AND USES THEREOF” (THE PENN STATE RESEARCH FOUNDATION, priority 2020, published 2023).
Entries after “also recorded” stand apart in the source; their conditions may differ.

Tests used:
[1] = system: HT-29 (CRC cells); assay: NCI-60 one-dose screen, HT-29; format: cell-based, human; conditions: HT-29, 10 μM, 48 h
Text: (§1) NCI-60 Analysis. 1a and 6a were submitted to National Cancer Institute's (NCI) Developmental Therapeutics Program (DTP) where the cytotoxicity profile was investigated across their 60 human cancer cell line panel according to the protocol available on multiple sources (71-73, 83). The COMPARE algorithm (73), was utilized to evaluate the activity profile of 6a in comparison to those of known cytotoxins established in marketed drugs and standard agent data sets in order to correlate plausible modes of action.
(§2) NCI-60 analysis. Compounds 1a, 5a and 6a were submitted to the National Cancer Institute's (NCI) Developmental Therapeutics Program (DTP). NCI-60 program consists in a panel of 60 human cancer cell lines from a variety of cancers, including refractory tumors such as lung, ovarian, CRC, breast, brain and renal cancers, and melanomas together with more treatable cancers such as leukemias (71). 1a [NSC: 803071], 5a [NSC: 820332] and 6a [NSC: 811013] were initially screened at one dose (10 μM) at 48 h. Then, NCI selected only compound 6a to perform dose-response characterization (72).

[2] = system: NCI-H226 (non-small cell lung cancer); assay: NCI-60 one-dose screen, NCI-H226; format: cell-based, human; conditions: NCI-H226, 10 μM, 48 h
Text: as §1, §2

[3] = system: CACO-2 CRC cells; assay: cells
Procedure: (§3) Cell Culture Conditions. The cell lines were obtained from the American Type Culture Collection (ATCC). PANC-1 and Caco-2 cell lines were maintained in DMEM medium (Gibco); HT-29, HCT-116 and RKO cells were maintained in McCoy's 5A medium (Gibco); and DU-145 and H1299 cells were maintained in RPMI 1640 medium (Gibco), supplemented with 10% fetal bovine serum (FBS; Gibco) and 1% antibiotics (10.00 units/mL penicillin and 10.00 mg/mL streptomycin; Gibco). Cells were preserved in tissue culture flasks at 37° C. and 5% CO2. Culture medium was replaced every three days.
(§4) Cell Viability Assay. The effect of each compound on cell viability was tested using the MTT assay (81). Briefly, 9000 cells/well were grown in 96-well plates for 12 h. Then these cells were incubated with either DMSO (control) or nine different concentration between 0.01-50 μM of the test compounds for 24, 48, and 72 h. Three hours before the termination point, 20 μL of MTT were added to measure cellular viability. The resultant formazan crystals were dissolved in 50 μL of DMSO, and absorbance was measured at 570 nm and 630 nm wavelengths. IC50, GI50, TGI and LC50 values were calculated using OriginPro 8.5.1.

[4] = system: RKO CRC cells; assay: cells
Procedure: as §3, §4

[5] = system: human CRC cells (HT-29, HCT-116, RKO and CACO-2); assay: MTT assay, panel of four CRC cells; format: cell-based; conditions: 4 CRC cells
Procedure: Cell Culture Conditions. […] Culture medium was replaced every three days.
Evaluation of the antiproliferative activity of methylseleno-NSAIDs, MSA and NSAIDs alone or in combination. […] CRC cells were treated for 24, 48 and 72 h at different concentrations to stablish the dose-response curves.

[6] = system: BxPC3 cells; assay: Subcutaneous xenograft tumor inhibition study in athymic nude mice; format: in vivo
Procedure: (§5) The cytotoxic response of 6a on pancreatic ductal adenocarcinoma cell lines (Panc-1, MIA PaCa-2 and BxPC3) was evaluated using MTT assay. […] To determine whether the in vitro efficacy of 6a translates to in vivo models, we performed a pilot tumor inhibition study in xenograft mouse model using BxPC3 cells. Athymic nude mice were subcutaneously injected with BxPC3 cells. After two weeks, mice were injected intraperitoneally with vehicle DMSO (control) or 6a (three times a week at a dose of 4 mg/Kg in 100 μL of DMSO). Tumor size and animal weights were measured twice a week.

[7] = system: OV: OVCAR-5; assay: NCI-60 dose-response, OVCAR-5; format: cell-based, human; conditions: OVCAR-5, most resistant cell line
Text: as §1, §2

[8] = system: CNS: SF-295; assay: NCI-60 dose-response, SF-295; format: cell-based, human; conditions: SF-295, 48 h
Text: as §1, §2

[9] = system: LC: HOP-62; assay: NCI-60 dose-response, HOP-62; format: cell-based, human; conditions: HOP-62, 48 h
Text: as §1, §2

[10] = Systemic toxicity in xenograft mice; format: in vivo
Procedure: as §5

[11] = system: CNS: SF-539; assay: NCI-60 dose-response, SF-539; format: cell-based, human; conditions: SF-539, 48 h
Text: as §1, §2

[12] = system: ME: LOX IMVI; assay: NCI-60 dose-response, LOX IMVI; format: cell-based, human; conditions: 48 h
Text: as §1, §2

[13] = system: NCI-60 human cancer cell line panel; assay: NCI-60 dose-response, whole panel; format: cell-based
Text: as §1, §2

[14] = system: LC: EKVX; assay: NCI-60 dose-response, EKVX; format: cell-based, human; conditions: 48 h
Text: as §1, §2

[15] = system: RE: A498; assay: NCI-60 dose-response, A498; format: cell-based, human; conditions: A498, 48 h
Text: as §1, §2

[16] = system: BxPC3 cells; assay: MTT assay, pancreatic ductal adenocarcinoma cells BxPC3; format: cell-based
Procedure: as §5

[17] = read-out: LC50 (the source's name)
[18] = 4 mg/Kg i.p. three times a week

C[Se]C(=O)c1ccccc1OC(C)=O [Compound 1a, 2-((methylselanyl)carbonyl)phenyl acetate]
Growth percent (GP) [1]: < 12% | Growth percent (GP) [2]: < 12% | IC50 ([3]; Homo sapiens, Caco-2, 24 h): 2600 ± 200 nM | IC50 ([3]; Homo sapiens, Caco-2, 48 h): 900 ± 100 nM | IC50 ([3]; Homo sapiens, Caco-2, 72 h): 800 ± 100 nM | IC50 ([4]; Homo sapiens, 24 h): > 50000 nM | IC50 ([4]; Homo sapiens, 48 h): > 50000 nM | IC50 ([4]; Homo sapiens, 72 h): > 50000 nM | anti-tumoral activity versus MSA and NSAIDs as single agents or combined [5]: higher anti-tumoral activity

C[Se]C(=O)CC1=C(C)/C(=C/c2ccc([S+](C)[O-])cc2)c2ccc(F)cc21 (stereo not shown) [Compound 6a, Se-methyl (Z)-2-(5-fluoro-2-methyl-1-(4-(methylsulfinyl)benzylidene)-1H-indenyl)ethaneselenoate]
reduction of tumor weight as compared to control mice ([6]; 4 mg/Kg i.p. three times a week, 22 days since start of treatment): 42.9% | tumor growth ([6]; 4 mg/Kg i.p., three times a week, nude mice xenograft): significantly inhibited; also recorded: significantly reduced | GI50 [7]: 47 nM | TGI [7]: 410 nM | CC50 [7, 17]: 3900 nM | GI50 [8]: 24.2 nM | LC50 [8]: 386 nM | TGI [8]: 107 nM | GI50 [9]: < 10 nM | LC50 [9]: 941 nM | TGI [9]: 155 nM | alanine aminotransferase (SGPT) [10, 18]: 19 U/L | bilirubin toxicity [10, 18]: 0.40 mg/dL | blood urea nitrogen [10, 18]: 23 mg/dL | body weight loss as compared to the control mice [10, 18]: did not show any significant weight loss | systemic toxicity ([10]; at the dose used (4 mg/Kg)): no evidence of systemic toxicity | GI50 [11]: 105 nM | TGI [11]: 275 nM | CC50 [11, 17]: 718 nM | GI50 [12]: 14.1 nM | LC50 (concentration giving 50% net cell kill) [12]: 62.1 nM | TGI [12]: 29.6 nM | cytotoxic activity towards the 6 most sensitive cells of the panel ([13]; LE:SR, CCRF-CEM, HCT-116, HL60, NCI-H522, MOLT-4): negligible | activity towards the 6 most resistant cells ([13]; TK10, SK-MEL-28, SNB-19, SK-OV-3, NCI-H322M, OVCAR-5): outstanding activity | TGI values ([13]; in all cell lines, except for seven): below 12 μM | GI50 ([13]; in four NSCLS and two CNS cell lines): < 10 nM | GI50 [14]: < 10 nM | TGI [14]: 10.8 nM | CC50 [14, 17]: 861 nM | GI50 [15]: 38.8 nM | TGI [15]: 184 nM | CC50 [15, 17]: 658 nM | IC50 ([3]; CACO-2, 24 h): 3000 ± 500 nM | IC50 ([3]; CACO-2, 48 h): 1300 ± 600 nM | IC50 ([3]; CACO-2, 72 h): 700 ± 200 nM | IC50 ([4]; RKO, 24 h): > 50000 nM | IC50 ([4]; RKO, 48 h): 17200 ± 2400 nM | IC50 ([4]; RKO, 72 h): 17300 ± 800 nM | anti-tumoral activity versus MSA and NSAIDs as single agents or combined [5]: higher anti-tumoral activity | IC50 [16]: 1000 nM
